The record followed here is patent US11136296B2, “Substituted N-arylethyl-2-arylquinoline-4-carboxamides and use thereof” (Bayer Aktiengesellschaft, priority 2017, dated 2021).

The target in the assay is FP receptor (Homo sapiens (Human), UniProt P43088). Briefly: In vitro test of inhibition of human FP receptor activity (PGF2α-induced calcium flux in FP-expressing CHEM1 cells). It counts as cell-based. The note with it: PGF2α-induced (2 nM) calcium flux in FP-expressing CHEM1 cells; some as mean values from multiple determinations. The source says: Table 1 below lists the IC50 values from this assay for individual working examples of the invention (some as mean values from multiple independent individual determinations): […]
Sequence of FP receptor (P43088 whole entry): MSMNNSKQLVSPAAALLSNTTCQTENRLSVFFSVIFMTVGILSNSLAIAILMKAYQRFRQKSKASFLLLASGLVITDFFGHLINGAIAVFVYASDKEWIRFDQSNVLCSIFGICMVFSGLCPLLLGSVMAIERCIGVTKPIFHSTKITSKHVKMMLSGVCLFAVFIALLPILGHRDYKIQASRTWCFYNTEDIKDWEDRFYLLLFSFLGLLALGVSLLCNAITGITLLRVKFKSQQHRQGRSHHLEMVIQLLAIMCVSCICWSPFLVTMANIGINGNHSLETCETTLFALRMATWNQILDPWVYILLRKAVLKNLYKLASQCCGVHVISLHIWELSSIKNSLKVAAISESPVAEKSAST
For `Cc1c(-c2ccccc2)nc2ccc(Br)cc2c1C(=O)NCC(CC(=O)O)c1ccccc1OC(F)(F)F` (racemic) [Example 99, (+/−)-4-{[(6-Bromo-3-methyl-2-phenylquinolin-4-yl)carbonyl]amino}-3-[2-(trifluoromethoxy)phenyl]butanoic Acid], the IC50 (usually the concentration that inhibits the measured activity by half) stood at 0.028 µM.

`Cc1c(-c2ccccc2)nc2ccc(Br)cc2c1C(=O)NCC(C(=O)O)c1cccc(Cl)c1` (racemic) [Example 47, (+/−)-3-{[(6-Bromo-3-methyl-2-phenylquinolin-4-yl)carbonyl]amino}-2-(3-chlorophenyl)propanoic Acid]: the IC50 was determined as 0.043 µM.

For the compound `Cc1c(-c2ccccc2)nc2ccc(Br)cc2c1C(=O)NCC(C)(C(=O)O)c1ncccc1Cl` (single isomer, unassigned) [Example 27, 3-{[(6-Bromo-3-methyl-2-phenylquinolin-4-yl)carbonyl]amino}-2-(3-chloropyridin-2-yl)-2-methylpropanoic Acid], the IC50 came to 0.053 µM.

For `Cc1c(-c2ccccc2)nc2ccc(Br)cc2c1C(=O)NCC(CCC(=O)O)c1cccc(F)c1Cl` (racemic) [Example 184, (+/−)-5-{[(6-Bromo-3-methyl-2-phenylquinolin-4-yl)carbonyl]amino}-4-(2-chloro-3-fluorophenyl)pentanoic Acid], the 50% inhibitory concentration (IC50) is 0.0077 µM.

Regarding `COc1cccc(F)c1C(C)(CNC(=O)c1c(C)c(-c2ccccc2)nc2ccc(Br)cc12)CC(=O)O` (racemic) [Example 142, (+/−)-4-{[(6-Bromo-3-methyl-2-phenylquinolin-4-yl)carbonyl]amino}-3-(2-fluoro-6-methoxyphenyl)-3-methylbutanoic Acid], the IC50 turned out to be 0.015 µM.

Regarding `COc1ccccc1C(C)(CNC(=O)c1c(C)c(-c2ccccc2)nc2ccc(Br)cc12)CC(=O)O` (single isomer, unassigned; (-)) [Example 122, (−)-4-{[(6-Bromo-3-methyl-2-phenylquinolin-4-yl)carbonyl]amino}-3-(2-methoxyphenyl)-3-methylbutanoic Acid], the concentration for half-maximal inhibition (IC50) was found to be 0.46 µM.

In the case of `COc1ccc(F)cc1C(CNC(=O)c1c(C)c(-c2ccccc2)nc2ccc(Br)cc12)CC(=O)O` (single isomer, unassigned; (-)) [Example 125, (−)-4-{[(6-Bromo-3-methyl-2-phenylquinolin-4-yl)carbonyl]amino}-3-(5-fluoro-2-methoxyphenyl)butanoic Acid], the half-maximal inhibitory concentration (IC50) is 0.097 µM.

Turning to `CCC(CNC(=O)c1c(C)c(-c2ccccc2)nc2ccc(Br)cc12)(C(=O)O)c1ccccc1` (racemic) [Example 16, (+/−)-2-({[(6-Bromo-3-methyl-2-phenylquinolin-4-yl)carbonyl]amino}methyl)-2-phenylbutanoic Acid], the IC50 amounted to 0.17 µM.

As to `Cc1c(-c2ccccc2)nc2ccc(Br)cc2c1C(=O)NCC(CCC(=O)O)c1c(F)c(F)cc(F)c1F` (single isomer, unassigned; (+)) [Example 230, (+)-5-{[(6-Bromo-3-methyl-2-phenylquinolin-4-yl)carbonyl]amino}-4-(2,3,5,6-tetrafluorophenyl)pentanoic Acid], the half-inhibitory concentration (IC50) is 0.049 µM.

Regarding `COc1ccccc1C(CCC(=O)O)CNC(=O)c1c(C)c(-c2ccccc2)nc2ccc(Br)cc12` (single isomer, unassigned; (+)) [Example 168, (+)-5-{[(6-Bromo-3-methyl-2-phenylquinolin-4-yl)carbonyl]amino}-4-(2-methoxyphenyl)pentanoic Acid], the half-inhibitory concentration (IC50) came to 0.0036 µM.

For `O=C(O)CCC(CNC(=O)c1c(Cl)c(-c2ccccc2)nc2ccc(Br)cc12)c1ccccc1Cl` (single isomer, unassigned; (+)) [Example 214, (+)-5-{[(6-Bromo-3-chloro-2-phenylquinolin-4-yl)carbonyl]amino}-4-(2-chlorophenyl)pentanoic Acid], the IC50 amounted to 0.0044 µM.

As for `Cc1c(-c2ccccc2)nc2ccc(Br)cc2c1C(=O)NCC(C)(C(=O)O)c1ncccc1Cl` (racemic) [Example 26, (+/−)-3-{[(6-Bromo-3-methyl-2-phenylquinolin-4-yl)carbonyl]amino}-2-(3-chloropyridin-2-yl)-2-methylpropanoic Acid], the half-inhibitory concentration (IC50) came out at 0.044 µM.

`Cc1c(-c2ccccc2)nc2ccc(Br)cc2c1C(=O)NCC(CC(=O)O)c1ccccc1C(F)(F)F` (racemic) [Example 105, (+/−)-4-{[(6-Bromo-3-methyl-2-phenylquinolin-4-yl)carbonyl]amino}-3-[2-(trifluoromethyl)phenyl]butanoic Acid]: the IC50 is 0.092 µM.

In the case of `Cc1c(-c2ccccc2)nc2ccc(Br)cc2c1C(=O)NCC(C)(CCC(=O)O)c1cc(F)ccc1Cl` (racemic) [Example 169, (+/−)-5-{[(6-Bromo-3-methyl-2-phenylquinolin-4-yl)carbonyl]amino}-4-(2-chloro-5-fluorophenyl)-4-methylpentanoic Acid], the IC50 was 0.026 µM.

In the case of `COc1c(F)cc(F)cc1C(C)(CNC(=O)c1c(C)c(-c2ccccc2)nc2ccc(Br)cc12)CC(=O)O` (single isomer, unassigned; (+)) [Example 136, (+)-4-{[(6-Bromo-3-methyl-2-phenylquinolin-4-yl)carbonyl]amino}-3-(3,5-difluoro-2-methoxyphenyl)-3-methylbutanoic Acid], the IC50 is 0.013 µM.

On to `Cc1ccccc1C(CNC(=O)c1c(C)c(-c2ccccc2)nc2ccc(Br)cc12)CC(=O)O` (single isomer, unassigned; (+)) [Example 77, (+)-4-{[(6-Bromo-3-methyl-2-phenylquinolin-4-yl)carbonyl]amino}-3-(2-methylphenyl)butanoic Acid], for which the IC50 was 0.085 µM.

Take `Cc1c(-c2ccccc2)nc2ccc(Br)cc2c1C(=O)NCC(CCC(=O)O)c1ccccc1OC(F)(F)F` (single isomer, unassigned; (+)) [Example 210, (+)-5-{[(6-Bromo-3-methyl-2-phenylquinolin-4-yl)carbonyl]amino}-4-[2-(trifluoromethoxy)phenyl]pentanoic Acid]: the IC50 turned out to be 0.0061 µM.

Take `Cc1c(-c2ccccc2)nc2ccc(Br)cc2c1C(=O)NCC(C)(C(=O)O)c1cccc(C(F)(F)F)c1` (single isomer, unassigned; (+)) [Example 43, (+)-3-{[(6-Bromo-3-methyl-2-phenylquinolin-4-yl)carbonyl]amino}-2-methyl-2-[3-(trifluoromethyl)phenyl]propanoic Acid]: the 50% inhibitory concentration (IC50) came to 0.14 µM.

Take `Cc1c(-c2ccccc2)nc2ccc(Br)cc2c1C(=O)NCC(C)(CC(=O)O)c1ncccc1Cl` (racemic) [Example 84, (+/−)-4-{[(6-Bromo-3-methyl-2-phenylquinolin-4-yl)carbonyl]amino}-3-(3-chloropyridin-2-yl)-3-methylbutanoic Acid]: the IC50 turned out to be 0.016 µM.

With `Cc1c(-c2ccccc2)nc2ccc(Br)cc2c1C(=O)NCC(C)(CCCC(=O)O)c1ccccc1Cl` (single isomer, unassigned; (-)) [Example 241, (−)-6-{[(6-Bromo-3-methyl-2-phenylquinolin-4-yl)carbonyl]amino}-5-(2-chlorophenyl)-5-methylhexanoic Acid], the half-inhibitory concentration (IC50) was determined as 0.068 µM.

On to `O=C(O)CCC(CNC(=O)c1c(Cl)c(-c2ccccc2)nc2ccc(Br)cc12)c1ccccc1Cl` (racemic) [Example 212, (+/−)-5-{[(6-Bromo-3-chloro-2-phenylquinolin-4-yl)carbonyl]amino}-4-(2-chlorophenyl)pentanoic Acid], for which the IC50 was found to be 0.0066 µM.

As to `COc1ccccc1C(CNC(=O)c1c(C)c(-c2ccccc2)nc2ccc(Br)cc12)C(=O)O` (single isomer, unassigned; (-)) [Example 8, (−)-3-{[(6-Bromo-3-methyl-2-phenylquinolin-4-yl)carbonyl]amino}-2-(2-methoxyphenyl)propanoic Acid], the 50% inhibitory concentration (IC50) stood at 0.13 µM.

For the compound `COc1ccccc1C(C)(CNC(=O)c1c(C)c(-c2ccccc2)nc2ccc(Br)cc12)CC(=O)O` (racemic) [Example 120, (+/−)-4-{[(6-Bromo-3-methyl-2-phenylquinolin-4-yl)carbonyl]amino}-3-(2-methoxyphenyl)-3-methylbutanoic Acid], the IC50 turned out to be 0.03 µM.

Consider `COc1ccccc1C(CNC(=O)c1c(C)c(-c2ccccc2)nc2ccc(Br)cc12)C(F)(F)C(=O)O` (racemic) [Example 141, (+/−)-4-{[(6-Bromo-3-methyl-2-phenylquinolin-4-yl)carbonyl]amino}-2,2-difluoro-3-(2-methoxyphenyl)butanoic Acid], for which the concentration for half-maximal inhibition (IC50) worked out at 0.024 µM.

For the compound `Cc1c(-c2ccccc2)nc2ccc(Br)cc2c1C(=O)NCC(C)(CC(=O)O)c1ccccn1` (single isomer, unassigned; (-)) [Example 119, (−)-4-{[(6-Bromo-3-methyl-2-phenylquinolin-4-yl)carbonyl]amino}-3-methyl-3-(pyridin-2-yl)butanoic Acid], the IC50 was determined as 0.15 µM.

As for `Cc1c(-c2ccccc2)nc2ccc(Br)cc2c1C(=O)NCC(C)(C(=O)O)c1ccccc1F` (racemic) [Example 29, (+/−)-3-{[(6-Bromo-3-methyl-2-phenylquinolin-4-yl)carbonyl]amino}-2-(2-fluorophenyl)-2-methylpropanoic Acid], the half-maximal inhibitory concentration (IC50) is 0.14 µM.

With `COc1ccccc1C(CNC(=O)c1c(C)c(-c2ccccc2)nc2ccc(Br)cc12)N1CCC(C(=O)O)C1` (centres unmarked) [Example 246, 1-[2-{[(6-Bromo-3-methyl-2-phenylquinolin-4-yl)carbonyl]amino}-1-(2-methoxyphenyl)ethyl]pyrrolidine-3-carboxylic Acid], the half-inhibitory concentration (IC50) amounted to 0.094 µM.

For the compound `Cc1c(-c2ccccc2)nc2ccc(Br)cc2c1C(=O)NCC(C)(C(=O)O)c1ccccc1` (single isomer, unassigned; (+)) [Example 15, (+)-3-{[(6-Bromo-3-methyl-2-phenylquinolin-4-yl)carbonyl]amino}-2-methyl-2-phenylpropanoic Acid], the IC50 was 0.19 µM.

`Cc1c(-c2ccccc2)nc2ccc(Br)cc2c1C(=O)NCC(CC(=O)O)c1ccccc1C(F)(F)F` (single isomer, unassigned; (+)) [Example 106, (+)-4-{[(6-Bromo-3-methyl-2-phenylquinolin-4-yl)carbonyl]amino}-3-[2-(trifluoromethyl)phenyl]butanoic Acid]: the IC50 was 0.28 µM.
